Data from patent publication US20260159536A1, “AKR1C3-ACTIVATED DNA ALKYLATING AGENT, AND MEDICAL APPLICATION THEREOF” (ASCENTAWITS PHARMACEUTICALS, LTD., priority 2021, published 2026).

Assay: in vitro
Conditions: for % Remaining: with NADPH and AST-3021
Experimental: (1) Compound A for test, progesterone positive control, and 100 mM stock solutions of AST-3021 inhibitor were prepared and stored in the freezer (−10° C. to −30° C.).
1) Negative control group: at different time points (0 and 60 min), 30 μL/well of hepatocyte cytosol suspension containing 7.5 μM of sample for test was distributed in a 96-well plate. Three replicate wells were prepared in parallel.
2) Positive control group: at different time points (0, 5, 15, 30, 45 and 60 min), 30 μL/well of hepatocyte cytosol suspension containing 7.5 μM of the positive control was distributed in a 96-well plate. Three replicate wells were prepared in parallel.
3) Normal reaction group: at different time points (0, 5, 15, 30, 45 and 60 min), 30 μL/well of hepatocyte cytosol suspension containing 7.5 μM of sample for test was distributed in a 96-well plate. Three replicate wells were prepared in parallel.
4) Inhibition reaction group: at different time points (0, 5, 15, 30, 45 and 60 min), 30 μL/well of hepatocyte cytosol suspension containing […] of sample for test and 4.5 μM of the inhibitor was distributed in a 96-well plate. Three replicate wells were prepared in parallel.
6) 0 min samples: after 150 μL/well of acetonitrile containing the internal standard was added, then 15 μL/well of pre-heated NADPH working solution was added to the samples of normal reaction group, inhibition reaction group and positive control group, and 15 μL/well of pre-heated potassium phosphate buffer was added to the samples of negative control group.
7) Other samples (5, 15, 30, 45 and 60 min): for normal reaction group, inhibition reaction group and positive control group, 15 μL/well of pre-heated NADPH working solution was added to start the reaction; for negative control group, 15 μL/well of pre-heated potassium phosphate buffer was added. The reaction plates were then continued to incubate in a 37° C. water bath and the reactions were stopped by the addition of 150 μL/well of stop solution at the corresponding time points (5, 15, 30, 45 and 60 min).
The concentration of analyte in each sample was expressed as a peak area ratio (peak area analyte/peak areainternal standard), then the peak area ratio at 0 min was used as a reference to calculate the % Remaining at each time point of the incubation, and the ln logarithmic value of the % Remaining was linearly fitted to the incubation time and the half-life was calculated according to the following formula.
In the absence of AST-3021, 5 μM of progesterone was co-incubated with 2 mM of NADPH and 1 mg/mL of hepatocyte cytosol for 0-60 min as a positive control.

With `O=[N+]([O-])c1ccc(C(OP(=O)(N2CC2)N2CC2)C(F)(F)F)cc1Oc1ccc(-c2ccc(F)cc2)c(F)c1` (racemic) [Compound A] the Metabolic parameter k (monkey, 2 mM NADPH, no AST-3021 (normal reaction / positive control group), 5 μM) was 0.0046, the “average % Remaining” value (monkey, 2 mM NADPH, no AST-3021 (normal reaction / positive control group), 5 μM, 0 min) was 100.00% and the “average % Remaining” value (monkey, 2 mM NADPH, no AST-3021 (normal reaction / positive control group), 5 μM, 5 min) was 98.89%. The “average % Remaining” value (monkey, 2 mM NADPH, no AST-3021 (normal reaction / positive control group), 5 μM, 15 min) was 94.52%, the “average % Remaining” value (monkey, 2 mM NADPH, no AST-3021 (normal reaction / positive control group), 5 μM, 30 min) was 89.81% and the “average % Remaining” value (monkey, 2 mM NADPH, no AST-3021 (normal reaction / positive control group), 5 μM, 45 min) was 83.43%. The “average % Remaining” value (monkey, 2 mM NADPH, no AST-3021 (normal reaction / positive control group), 5 μM, 60 min) was 73.28%, the Metabolic parameter k (monkey, negative control group (no NADPH, no AST-3021), 5 μM) was 0.0040 and the “average % Remaining” value (monkey, negative control group (no NADPH, no AST-3021), 5 μM, 0 min) was 100.00%. For the same molecule, the “average % Remaining” value (monkey, negative control group (no NADPH, no AST-3021), 5 μM, 60 min) was 78.57%, the “average % Remaining” value (mouse, 60 min, no NADPH, no AST-3021) was 83.01% and the “average % Remaining” value (mouse, 60 min, with NADPH, no AST-3021) was 88.89%. For the same molecule, the “% Remaining” value (mouse) was 74.94%, the Metabolic parameter k (mouse, 2 mM NADPH + 3 μM AST-3021 (inhibition reaction group), 5 μM) was 0.0041 and the “average % Remaining” value (mouse, 2 mM NADPH + 3 μM AST-3021 (inhibition reaction group), 5 μM, 0 min) was 100.00%. For the same molecule, the “average % Remaining” value (mouse, 2 mM NADPH + 3 μM AST-3021 (inhibition reaction group), 5 μM, 5 min) was 90.76%, the “average % Remaining” value (mouse, 2 mM NADPH + 3 μM AST-3021 (inhibition reaction group), 5 μM, 15 min) was 87.29% and the “average % Remaining” value (mouse, 2 mM NADPH + 3 μM AST-3021 (inhibition reaction group), 5 μM, 30 min) was 85.00%. For the same molecule, the “average % Remaining” value (mouse, 2 mM NADPH + 3 μM AST-3021 (inhibition reaction group), 5 μM, 45 min) was 82.33%, the “average % Remaining” value (mouse, 2 mM NADPH + 3 μM AST-3021 (inhibition reaction group), 5 μM, 60 min) was 74.94% and the Metabolic parameter k (mouse, 2 mM NADPH, no AST-3021 (normal reaction / positive control group), 5 μM) was 0.0014. The “average % Remaining” value (mouse, 2 mM NADPH, no AST-3021 (normal reaction / positive control group), 5 μM, 0 min) was 100.00%, the “average % Remaining” value (mouse, 2 mM NADPH, no AST-3021 (normal reaction / positive control group), 5 μM, 5 min) was 99.18% and the “average % Remaining” value (mouse, 2 mM NADPH, no AST-3021 (normal reaction / positive control group), 5 μM, 15 min) was 109.17%. For the same molecule, the “average % Remaining” value (mouse, 2 mM NADPH, no AST-3021 (normal reaction / positive control group), 5 μM, 30 min) was 95.86%, the “average % Remaining” value (mouse, 2 mM NADPH, no AST-3021 (normal reaction / positive control group), 5 μM, 45 min) was 95.38% and the “average % Remaining” value (mouse, 2 mM NADPH, no AST-3021 (normal reaction / positive control group), 5 μM, 60 min) was 88.89%. For the same molecule, the Metabolic parameter k (mouse, negative control group (no NADPH, no AST-3021), 5 μM) was 0.0031, the “average % Remaining” value (mouse, negative control group (no NADPH, no AST-3021), 5 μM, 0 min) was 100.00% and the “average % Remaining” value (mouse, negative control group (no NADPH, no AST-3021), 5 μM, 60 min) was 83.01%. For the same molecule, the “average % Remaining” value (rat, 60 min, no NADPH, no AST-3021) was 68.42%, the “average % Remaining” value (rat, 60 min, with NADPH, no AST-3021) was 71.72% and the “% Remaining” value (rat) was 63.81%. For the same molecule, the Metabolic parameter k (rat, 2 mM NADPH + 3 μM AST-3021 (inhibition reaction group), 5 μM) was 0.0068, the “average % Remaining” value (rat, 2 mM NADPH + 3 μM AST-3021 (inhibition reaction group), 5 μM, 0 min) was 100.00% and the “average % Remaining” value (rat, 2 mM NADPH + 3 μM AST-3021 (inhibition reaction group), 5 μM, 5 min) was 88.10%. The “average % Remaining” value (rat, 2 mM NADPH + 3 μM AST-3021 (inhibition reaction group), 5 μM, 15 min) was 86.23%, the “average % Remaining” value (rat, 2 mM NADPH + 3 μM AST-3021 (inhibition reaction group), 5 μM, 30 min) was 83.84% and the “average % Remaining” value (rat, 2 mM NADPH + 3 μM AST-3021 (inhibition reaction group), 5 μM, 45 min) was 78.06%. The “average % Remaining” value (rat, 2 mM NADPH + 3 μM AST-3021 (inhibition reaction group), 5 μM, 60 min) was 63.81%, the Metabolic parameter k (rat, 2 mM NADPH, no AST-3021 (normal reaction / positive control group), 5 μM) was 0.0053 and the “average % Remaining” value (rat, 2 mM NADPH, no AST-3021 (normal reaction / positive control group), 5 μM, 0 min) was 100.00%. The “average % Remaining” value (rat, 2 mM NADPH, no AST-3021 (normal reaction / positive control group), 5 μM, 5 min) was 90.07%, the “average % Remaining” value (rat, 2 mM NADPH, no AST-3021 (normal reaction / positive control group), 5 μM, 15 min) was 90.26% and the “average % Remaining” value (rat, 2 mM NADPH, no AST-3021 (normal reaction / positive control group), 5 μM, 30 min) was 84.80%. For the same molecule, the “average % Remaining” value (rat, 2 mM NADPH, no AST-3021 (normal reaction / positive control group), 5 μM, 45 min) was 81.99%, the “average % Remaining” value (rat, 2 mM NADPH, no AST-3021 (normal reaction / positive control group), 5 μM, 60 min) was 71.72% and the Metabolic parameter k (rat, negative control group (no NADPH, no AST-3021), 5 μM) was 0.0063. For the same molecule, the “average % Remaining” value (rat, negative control group (no NADPH, no AST-3021), 5 μM, 0 min) was 100.00% and the “average % Remaining” value (rat, negative control group (no NADPH, no AST-3021), 5 μM, 60 min) was 68.42%.
